Results published in patent US7611858B1, “Detection of cannabinoid receptor biomarkers and uses thereof” (University of Florida Research Foundation, Inc., priority 2004, dated 2009).

Legend:
[1] = tested on: AC133 positive neural progenitors; assay: clonal generation of neurospheres from dissociated mouse postnatal forebrain; type: cell-based
[2] = tested on: clonal neurospheres from postnatal rat forebrain; type: cell-based; conditions: at 1 μM
[3] = tested on: AC133 and nestin expression in brain cortex; assay: neural stem cell markers in brain after traumatic brain injury in mice treated with 2-AG (blots); type: in vivo
[4] = i.p. 5 mg/kg daily, 3 hr, 24 hr and 5 days post injury
[5] = treatment post injury 5 mg/kg i.p. daily

| Compound | clonal generation of neurospheres [1] | clonal neurospheres from postnatal rat forebrain (FIG. 8A) [2] | AC133 in brain cortex after TBI (FIG. 6A) [3, 4] | Nestin in brain cortex after TBI (FIG. 6B) [3, 4] | expression of AC133 neural stem cells after traumatic brain injury (FIG. 10A) [3, 5] | expression of nestin in neural stem cells after traumatic brain injury (FIG. 10B) [3, 5] |
| --- | --- | --- | --- | --- | --- | --- |
| lysophosphatidic acid [LPA] | instigated clonal generation of mouse neurospheres | – | – | – | – | – |
| CCCCC/C=C\C/C=C\C/C=C\C/C=C\CCCC(=O)OC(CO)CO [2-AG, 2-arachidonoyl glycerol] | instigated clonal generation of neurospheres | abolition | up-regulation | up-regulation | increase of enhanced expression | increase of enhanced expression |
